Reference: PMC10175918 (Communications Biology, 2023)
Like-named read-outs stand apart in the source and are kept apart here.

Key:
Assay in all cases: TGFα-shedding assay-based GPCR screening with chimeric Gα subunit proteins
Format in all cases: cell-based
[1] = target: T1, 348 GPCRs (Homo sapiens, UniProt O00254); conditions: 10µM, Favipiravir 100μM
T1 construct: expressed in transfected cells; host or cells: HEK293A
T1 sequence (O00254 22-374): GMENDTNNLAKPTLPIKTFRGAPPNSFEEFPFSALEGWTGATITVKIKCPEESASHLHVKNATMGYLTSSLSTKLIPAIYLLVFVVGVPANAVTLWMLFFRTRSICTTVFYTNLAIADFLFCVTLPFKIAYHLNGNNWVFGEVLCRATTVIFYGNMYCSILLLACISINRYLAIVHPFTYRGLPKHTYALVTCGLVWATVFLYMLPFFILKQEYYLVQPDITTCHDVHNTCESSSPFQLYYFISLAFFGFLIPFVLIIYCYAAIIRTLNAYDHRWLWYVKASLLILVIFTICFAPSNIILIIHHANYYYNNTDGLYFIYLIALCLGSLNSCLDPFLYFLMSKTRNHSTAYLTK

[2] = target: T2, 348 GPCRs (Homo sapiens, UniProt O43194)
T2 construct: expressed in transfected cells; host or cells: HEK293A
T2 sequence (O43194 1-453): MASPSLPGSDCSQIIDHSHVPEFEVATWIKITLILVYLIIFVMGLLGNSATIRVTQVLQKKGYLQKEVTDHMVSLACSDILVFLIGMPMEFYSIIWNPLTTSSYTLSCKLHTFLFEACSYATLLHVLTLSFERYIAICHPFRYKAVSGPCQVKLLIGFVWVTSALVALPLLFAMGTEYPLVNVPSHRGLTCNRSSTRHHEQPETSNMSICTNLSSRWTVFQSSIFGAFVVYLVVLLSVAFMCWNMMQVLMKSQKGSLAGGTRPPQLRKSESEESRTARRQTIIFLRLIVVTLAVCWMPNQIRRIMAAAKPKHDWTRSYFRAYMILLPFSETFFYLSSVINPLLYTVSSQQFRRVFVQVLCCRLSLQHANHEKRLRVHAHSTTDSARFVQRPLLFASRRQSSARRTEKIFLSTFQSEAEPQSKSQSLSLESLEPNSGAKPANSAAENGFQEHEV

[3] = target: 348 GPCRs (Homo sapiens, UniProt O60894); conditions: 10µM, Favipiravir 100μM
[4] = target: 348 GPCRs (Homo sapiens, UniProt O95665); conditions: NTSR2 (neurotensin receptor type 2); 10µM, Favipiravir 100μM
[5] = target: T3, 348 GPCRs (Homo sapiens, UniProt P29274); conditions: ADORA2A (adenosine A2a receptor); 10µM, Favipiravir 100μM
T3 construct: expressed in transfected cells; host or cells: HEK293A

[6] = target: T4, 348 GPCRs (Homo sapiens, UniProt P30542); conditions: 10µM, Favipiravir 100μM
T4 sequence (P30542 1-326): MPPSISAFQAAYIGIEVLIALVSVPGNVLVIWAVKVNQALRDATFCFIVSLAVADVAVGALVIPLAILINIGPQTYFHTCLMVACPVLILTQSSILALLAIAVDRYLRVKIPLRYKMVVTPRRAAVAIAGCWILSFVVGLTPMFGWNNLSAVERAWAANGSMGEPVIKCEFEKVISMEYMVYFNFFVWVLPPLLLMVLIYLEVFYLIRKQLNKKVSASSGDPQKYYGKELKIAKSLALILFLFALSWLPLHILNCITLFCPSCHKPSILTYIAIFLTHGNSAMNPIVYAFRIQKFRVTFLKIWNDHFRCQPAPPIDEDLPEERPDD

[7] = target: T5, 348 GPCRs (Homo sapiens, UniProt P37288)
T5 construct: expressed in transfected cells; host or cells: HEK293A

[8] = target: T6, 348 GPCRs (Homo sapiens, UniProt P41968)
T6 construct: expressed in transfected cells; host or cells: HEK293A

[9] = target: T7, 348 GPCRs (Homo sapiens, UniProt P43116); conditions: 10µM, Favipiravir 100μM
T7 construct: expressed in transfected cells; host or cells: HEK293A

[10] = target: 348 GPCRs (Homo sapiens, UniProt P43220); conditions: 10µM, Favipiravir 100μM
[11] = target: T8, 348 GPCRs (Homo sapiens, UniProt Q8NFJ6); conditions: 10µM, Favipiravir 100μM
T8 construct: expressed in transfected cells; host or cells: HEK293A

[12] = target: T9, 348 GPCRs (Homo sapiens, UniProt Q969F8); conditions: 10µM, Favipiravir 100μM
T9 construct: expressed in transfected cells; host or cells: HEK293A

[13] = target: T10, 348 GPCRs (Homo sapiens, UniProt Q969V1); conditions: 10µM, Favipiravir 100μM
T10 construct: expressed in transfected cells; host or cells: HEK293A

[14] = target: T11, 348 GPCRs (Homo sapiens, UniProt Q96LB2); conditions: 10µM, Favipiravir 100μM
T11 construct: expressed in transfected cells; host or cells: HEK293A

[15] = target: T12, 348 GPCRs (Homo sapiens, UniProt Q9BZJ8)
T12 construct: expressed in transfected cells; host or cells: HEK293A

[16] = F2RL2 (coagulation factor II (thrombin) receptor-like 2), read-out: % GPCR activation compared to TPA
[17] = GPCR GPR39 (G Protein-Coupled Receptor 39), read-out: % GPCR activation compared to TPA
[18] = RAMP1 (receptor-activity-modifying protein 1), read-out: % GPCR activation compared to TPA
[19] = ADORA1 (adenosine A1 receptor), read-out: % GPCR activation compared to TPA
[20] = GPCR V1A (arginine vasopressin receptor 1A), read-out: % GPCR activation compared to TPA
[21] = GPCR MC3R (melanocortin 3 receptor), read-out: % GPCR activation compared to TPA
[22] = EP2 (prostaglandin E receptor 2), read-out: % GPCR activation compared to TPA
[23] = GLP1R (glucagon-like peptide 1 receptor), read-out: % GPCR activation compared to TPA
[24] = PK2 (prokineticin receptor 2), read-out: % GPCR activation compared to TPA
[25] = PROKR2 (prokineticin receptor 2), read-out: % GPCR activation compared to TPA
[26] = KISSPEPTIN-R (KISS1 Receptor), read-out: % GPCR activation compared to TPA
[27] = MCHR2 (melanin concentrating hormone receptor 2), read-out: % GPCR activation compared to TPA
[28] = MRGPRX1 (MAS-related GPR, member X1), read-out: % GPCR activation compared to TPA
[29] = GPCR GPR61 (G protein-coupled receptor 61), read-out: % GPCR activation compared to TPA
[30] = read-out: % GPCR activation compared to TPA, F2RL2 (coagulation factor II (thrombin) receptor-like 2)
[31] = read-out: % GPCR activation compared to TPA, GPCR GPR39 (G Protein-Coupled Receptor 39)
[32] = read-out: % GPCR activation compared to TPA, RAMP1 (receptor-activity-modifying protein 1)
[33] = read-out: % GPCR activation compared to TPA, ADORA1 (adenosine A1 receptor)
[34] = read-out: % GPCR activation compared to TPA, GPCR V1A (arginine vasopressin receptor 1A)
[35] = read-out: % GPCR activation compared to TPA, GPCR MC3R (melanocortin 3 receptor)
[36] = read-out: % GPCR activation compared to TPA, EP2 (prostaglandin E receptor 2)
[37] = read-out: % GPCR activation compared to TPA, GLP1R (glucagon-like peptide 1 receptor)
[38] = read-out: % GPCR activation compared to TPA, PK2 (prokineticin receptor 2)
[39] = read-out: % GPCR activation compared to TPA, PROKR2 (prokineticin receptor 2)
[40] = read-out: % GPCR activation compared to TPA, KISSPEPTIN-R (KISS1 Receptor)
[41] = read-out: % GPCR activation compared to TPA, MCHR2 (melanin concentrating hormone receptor 2)
[42] = read-out: % GPCR activation compared to TPA, MRGPRX1 (MAS-related GPR, member X1)
[43] = read-out: % GPCR activation compared to TPA, GPCR GPR61 (G protein-coupled receptor 61)

T3 sequence (P29274 whole entry): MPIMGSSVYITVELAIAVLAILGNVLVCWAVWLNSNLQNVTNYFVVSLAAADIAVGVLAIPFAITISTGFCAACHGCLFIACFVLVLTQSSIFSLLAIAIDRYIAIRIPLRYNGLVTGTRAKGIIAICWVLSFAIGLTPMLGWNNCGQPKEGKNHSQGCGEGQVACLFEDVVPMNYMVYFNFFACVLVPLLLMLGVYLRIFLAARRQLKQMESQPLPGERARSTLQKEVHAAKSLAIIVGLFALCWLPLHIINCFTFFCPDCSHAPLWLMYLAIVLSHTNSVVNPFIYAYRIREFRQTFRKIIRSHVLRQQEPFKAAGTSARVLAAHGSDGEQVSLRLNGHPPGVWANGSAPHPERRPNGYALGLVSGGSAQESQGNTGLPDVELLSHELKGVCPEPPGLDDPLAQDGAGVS
T11 sequence (Q96LB2 whole entry): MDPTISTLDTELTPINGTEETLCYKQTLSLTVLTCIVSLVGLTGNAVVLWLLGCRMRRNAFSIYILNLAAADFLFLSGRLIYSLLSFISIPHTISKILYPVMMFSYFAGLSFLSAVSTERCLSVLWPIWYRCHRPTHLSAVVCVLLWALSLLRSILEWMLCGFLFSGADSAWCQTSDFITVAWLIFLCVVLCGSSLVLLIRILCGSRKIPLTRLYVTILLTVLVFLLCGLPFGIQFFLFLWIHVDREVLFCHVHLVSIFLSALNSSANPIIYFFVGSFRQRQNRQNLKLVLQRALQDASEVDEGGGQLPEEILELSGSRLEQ
T8 sequence (Q8NFJ6 whole entry): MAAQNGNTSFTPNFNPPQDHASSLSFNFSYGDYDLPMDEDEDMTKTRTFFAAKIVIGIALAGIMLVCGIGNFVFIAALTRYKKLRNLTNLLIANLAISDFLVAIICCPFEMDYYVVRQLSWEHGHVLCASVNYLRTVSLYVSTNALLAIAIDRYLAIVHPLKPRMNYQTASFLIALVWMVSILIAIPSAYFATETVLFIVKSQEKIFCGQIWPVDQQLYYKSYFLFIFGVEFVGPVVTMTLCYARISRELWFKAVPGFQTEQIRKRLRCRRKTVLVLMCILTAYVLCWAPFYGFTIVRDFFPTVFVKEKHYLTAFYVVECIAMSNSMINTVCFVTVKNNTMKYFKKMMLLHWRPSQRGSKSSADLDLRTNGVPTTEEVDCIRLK
Sequence of 348 GPCRs (Homo sapiens, UniProt O60894) (O60894 27-148): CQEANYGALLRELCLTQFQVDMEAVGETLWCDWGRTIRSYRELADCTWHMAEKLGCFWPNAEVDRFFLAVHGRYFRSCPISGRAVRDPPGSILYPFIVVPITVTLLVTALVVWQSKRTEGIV
T6 sequence (P41968 whole entry): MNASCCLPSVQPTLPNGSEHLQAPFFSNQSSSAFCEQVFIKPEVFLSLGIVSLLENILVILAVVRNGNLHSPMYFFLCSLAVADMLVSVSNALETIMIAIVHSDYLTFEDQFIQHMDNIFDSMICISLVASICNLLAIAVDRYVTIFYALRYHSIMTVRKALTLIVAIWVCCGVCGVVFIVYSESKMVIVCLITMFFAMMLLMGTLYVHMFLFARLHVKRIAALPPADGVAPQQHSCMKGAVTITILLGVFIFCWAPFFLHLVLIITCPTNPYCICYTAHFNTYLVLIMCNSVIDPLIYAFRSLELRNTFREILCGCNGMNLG
T5 sequence (P37288 whole entry): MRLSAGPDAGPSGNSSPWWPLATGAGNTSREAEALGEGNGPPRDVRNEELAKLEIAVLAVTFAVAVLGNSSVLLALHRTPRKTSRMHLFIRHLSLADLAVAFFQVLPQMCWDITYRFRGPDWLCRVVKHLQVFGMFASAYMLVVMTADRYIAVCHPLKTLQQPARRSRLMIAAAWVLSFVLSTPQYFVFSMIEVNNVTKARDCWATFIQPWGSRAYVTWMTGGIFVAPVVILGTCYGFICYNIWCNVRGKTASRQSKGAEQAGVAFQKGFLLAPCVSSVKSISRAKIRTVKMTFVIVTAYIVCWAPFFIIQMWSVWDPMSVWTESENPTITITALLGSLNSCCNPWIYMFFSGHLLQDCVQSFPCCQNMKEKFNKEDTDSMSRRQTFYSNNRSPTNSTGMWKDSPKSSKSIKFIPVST
T7 sequence (P43116 whole entry): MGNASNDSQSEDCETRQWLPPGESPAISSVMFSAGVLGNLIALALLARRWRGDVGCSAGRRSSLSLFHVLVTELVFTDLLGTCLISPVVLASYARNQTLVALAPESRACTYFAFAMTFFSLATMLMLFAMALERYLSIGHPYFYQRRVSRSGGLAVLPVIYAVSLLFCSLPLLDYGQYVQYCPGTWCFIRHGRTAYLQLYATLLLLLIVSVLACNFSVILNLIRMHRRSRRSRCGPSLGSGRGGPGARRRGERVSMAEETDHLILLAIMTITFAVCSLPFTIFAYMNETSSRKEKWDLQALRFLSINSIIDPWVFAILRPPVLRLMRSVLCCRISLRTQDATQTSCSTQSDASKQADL
Sequence of 348 GPCRs (Homo sapiens, UniProt O95665) (O95665 whole entry): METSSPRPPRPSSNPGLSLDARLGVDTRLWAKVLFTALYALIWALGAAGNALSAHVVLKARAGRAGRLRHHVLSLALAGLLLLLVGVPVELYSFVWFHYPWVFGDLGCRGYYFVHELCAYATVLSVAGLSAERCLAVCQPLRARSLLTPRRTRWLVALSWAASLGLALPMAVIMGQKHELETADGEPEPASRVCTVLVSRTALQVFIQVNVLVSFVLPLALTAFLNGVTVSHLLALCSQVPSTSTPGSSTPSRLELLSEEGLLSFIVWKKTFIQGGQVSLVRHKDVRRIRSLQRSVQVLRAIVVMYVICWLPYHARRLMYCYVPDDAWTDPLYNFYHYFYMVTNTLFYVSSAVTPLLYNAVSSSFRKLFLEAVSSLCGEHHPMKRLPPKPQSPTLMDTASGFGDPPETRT
Sequence of 348 GPCRs (Homo sapiens, UniProt P43220) (P43220 24-463): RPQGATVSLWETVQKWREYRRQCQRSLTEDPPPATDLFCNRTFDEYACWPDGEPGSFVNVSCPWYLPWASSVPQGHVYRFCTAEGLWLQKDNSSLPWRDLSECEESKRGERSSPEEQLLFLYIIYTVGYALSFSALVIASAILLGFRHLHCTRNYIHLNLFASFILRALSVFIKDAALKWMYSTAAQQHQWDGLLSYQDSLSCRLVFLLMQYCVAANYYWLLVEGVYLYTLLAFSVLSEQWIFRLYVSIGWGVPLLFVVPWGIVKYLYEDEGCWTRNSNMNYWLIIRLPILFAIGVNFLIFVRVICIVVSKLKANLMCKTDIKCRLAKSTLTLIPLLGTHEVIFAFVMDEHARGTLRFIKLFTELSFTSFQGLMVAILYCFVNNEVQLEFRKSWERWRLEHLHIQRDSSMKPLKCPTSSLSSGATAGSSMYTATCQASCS
T10 sequence (Q969V1 whole entry): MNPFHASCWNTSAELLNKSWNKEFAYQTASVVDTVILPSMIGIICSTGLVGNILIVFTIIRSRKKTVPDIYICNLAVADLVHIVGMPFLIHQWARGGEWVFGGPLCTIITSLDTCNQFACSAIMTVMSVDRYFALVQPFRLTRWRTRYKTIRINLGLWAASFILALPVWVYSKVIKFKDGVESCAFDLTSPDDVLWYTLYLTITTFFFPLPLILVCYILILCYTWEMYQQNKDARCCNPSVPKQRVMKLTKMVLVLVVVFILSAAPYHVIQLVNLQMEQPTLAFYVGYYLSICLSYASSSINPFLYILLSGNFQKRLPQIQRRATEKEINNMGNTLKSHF
T9 sequence (Q969F8 whole entry): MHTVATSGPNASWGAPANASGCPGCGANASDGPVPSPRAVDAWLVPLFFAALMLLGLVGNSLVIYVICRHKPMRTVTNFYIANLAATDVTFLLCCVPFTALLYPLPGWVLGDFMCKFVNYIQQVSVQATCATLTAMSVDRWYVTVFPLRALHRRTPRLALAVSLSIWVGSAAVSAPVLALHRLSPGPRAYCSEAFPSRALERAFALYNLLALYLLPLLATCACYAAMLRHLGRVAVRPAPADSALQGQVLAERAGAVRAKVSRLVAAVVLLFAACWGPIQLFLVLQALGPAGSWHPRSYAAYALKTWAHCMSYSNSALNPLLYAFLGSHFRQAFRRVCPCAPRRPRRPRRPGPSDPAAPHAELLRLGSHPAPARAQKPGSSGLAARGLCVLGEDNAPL
T12 sequence (Q9BZJ8 whole entry): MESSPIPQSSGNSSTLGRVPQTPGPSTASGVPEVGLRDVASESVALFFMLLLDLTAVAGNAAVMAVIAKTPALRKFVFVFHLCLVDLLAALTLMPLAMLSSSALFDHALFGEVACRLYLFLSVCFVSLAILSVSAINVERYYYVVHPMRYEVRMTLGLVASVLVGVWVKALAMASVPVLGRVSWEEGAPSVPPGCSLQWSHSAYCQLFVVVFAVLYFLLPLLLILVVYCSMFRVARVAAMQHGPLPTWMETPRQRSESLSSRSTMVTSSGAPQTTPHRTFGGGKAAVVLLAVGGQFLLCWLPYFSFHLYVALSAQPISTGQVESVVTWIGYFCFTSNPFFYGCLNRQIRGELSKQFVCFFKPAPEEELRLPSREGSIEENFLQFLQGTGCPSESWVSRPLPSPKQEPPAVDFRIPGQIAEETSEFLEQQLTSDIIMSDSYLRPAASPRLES

activation at 10 µM [1, 16]	activation at 10 µM [2, 17]	activation at 100 µM [3, 18]	% GPCR activation compared to TPA [4]	% GPCR activation compared to TPA [5]	activation at 100 µM [6, 19]	activation at 10 µM [7, 20]	activation at 10 µM [8, 21]	activation at 10 µM [9, 22]	activation at 10 µM [10, 23]	activation at 10 µM [11, 24]	activation at 100 µM [11, 25]	activation at 100 µM [12, 26]	activation at 10 µM [13, 27]	activation at 100 µM [14, 28]	activation at 10 µM [15, 29]	SMILES	activation at 10 µM [1, 30]	activation at 10 µM [2, 31]	activation at 100 µM [3, 32]	activation at 100 µM [6, 33]	also measured
-2.64%	-9.02%	-0.968%	1.005%	1.631%	0.705%	-0.48%	2.26%	-0.304%	-1.52%	-2.39%	-1.59%	-2.31%	-0.458%	-1.59%	-3.94%	N#C[C@@]1(c2ccc3c(N)ncnn23)O[C@H](CO)[C@@H](O)[C@H]1O [GS441524]					
-0.958%		-0.805%	-3.411%	2.3424%	-0.249%			0.965%	-2.54%	-4.29%	0.524%	-3.52%	-2.23%	-1.16%		NC(=O)c1nc(F)cnc1O [favipiravir, 6-fluoro-3-hydroxy-2-pyrazinecarboxamide]					activation at 100 µM ([2]; GPCR GPR39 (G Protein-Coupled Receptor 39), 100μM, read-out: % GPCR activation compared to TPA): -6.36%; activation at 100 µM ([7]; GPCR V1A (arginine vasopressin receptor 1A), 100μM, read-out: % GPCR activation compared to TPA): 0.923%; activation at 100 µM ([8]; GPCR MC3R (melanocortin 3 receptor), 100μM, read-out: % GPCR activation compared to TPA): 0.3%; activation at 100 µM ([15]; GPCR GPR61 (G protein-coupled receptor 61), 100μM, read-out: % GPCR activation compared to TPA): -3.47%
-1.18%	-11.5%	-0.742%	0.1275%	-1.952%	-3.9%	0.0613%	-4.7%	-0.705%	-2.83%	-5.79%	-1.79%	-4.04%	-3.92%	-2.42%	-0.396%	CC(C)C(=O)OC[C@H]1O[C@@H](n2ccc(NO)nc2=O)[C@H](O)[C@@H]1O [molnupiravir]					

SMILES	activation at 10 µM [1, 16]	activation at 10 µM [2, 17]	activation at 100 µM [3, 18]	% GPCR activation compared to TPA [4]	% GPCR activation compared to TPA [5]	activation at 100 µM [6, 19]	activation at 10 µM [7, 20]	activation at 10 µM [8, 21]	activation at 10 µM [9, 22]	activation at 10 µM [10, 23]	activation at 10 µM [11, 24]	activation at 100 µM [11, 25]	activation at 100 µM [12, 26]	activation at 10 µM [13, 27]	activation at 100 µM [14, 28]	activation at 10 µM [15, 29]	activation at 10 µM [1, 30]	activation at 10 µM [2, 31]	activation at 100 µM [3, 32]	activation at 100 µM [6, 33]	also measured
CCC(CC)COC(=O)[C@H](C)N[P@](=O)(OC[C@H]1O[C@@](C#N)(c2ccc3c(N)ncnn23)[C@H](O)[C@@H]1O)Oc1ccccc1 [remdesivir]				-1.859%	3.955%												-1.15%	2.25%	1.07%	3.8%	activation at 10 µM [7, 34]: 0.24%; activation at 10 µM [8, 35]: 1.7%; activation at 10 µM [9, 36]: 1.83%; activation at 10 µM [10, 37]: -0.928%; activation at 10 µM [11, 38]: -3.23%; activation at 100 µM [11, 39]: 0.417%; activation at 100 µM [12, 40]: -1.75%; activation at 10 µM [13, 41]: -3.7%; activation at 100 µM [14, 42]: 0.23%; activation at 10 µM [15, 43]: -3.23%
CC(C)OC(=O)[C@H](C)N[P@](=O)(OC[C@H]1O[C@@H](n2ccc(=O)[nH]c2=O)[C@](C)(F)[C@@H]1O)Oc1ccccc1 [sofosbuvir]				0.2553%	-2.149%												1.05%	-4.93%	-0.995%	1.9%	activation at 10 µM [7, 34]: -0.512%; activation at 10 µM [8, 35]: -3.13%; activation at 10 µM [9, 36]: -1.21%; activation at 10 µM [10, 37]: -2.54%; activation at 10 µM [11, 38]: -0.621%; activation at 100 µM [11, 39]: -2.61%; activation at 100 µM [12, 40]: -1.38%; activation at 10 µM [13, 41]: -1.19%; activation at 100 µM [14, 42]: -1.41%; activation at 10 µM [15, 43]: -0.929%
